This is an account of results in US11566057B2, “Long-acting co-agonists of the glucagon and GLP-1 receptors” (Merck Sharp & Dohme Corp., priority 2017, dated 2023).

pEC50: −log10 of the molar value. Where two headings read alike, the source gives them in different places. Numbered stars: 1 amine (or outer) side, 2 acyl side, 3 side chain; on linkers, the order of the positions; unused ones are H or OH. Square brackets hold non-standard residues; d marks the D form. Side chains are listed from the residue outwards. Peptide text beside a SMILES is read from it. * marks the point of attachment. C20 diacid = O=C(O)CCCCCCCCCCCCCCCCCCC(=O)*; Phe(4-CH2NH2) = NCc1ccc(C[C@H](N)C(=O)O)cc1; C18 diacid = O=C(O)CCCCCCCCCCCCCCCCC(=O)*; C16 diacid = O=C(O)CCCCCCCCCCCCCCC(=O)*; γGlu = O=C(O)[C@H](CCC(=O)[*:2])N[*:1]; Met(O2) = CS(=O)(=O)CC[C@H](N)C(=O)O; αMeD = C[C@](N)(CC(=O)O)C(=O)O; αMeS = C[C@](N)(CO)C(=O)O; AEEA = NCCOCCOCC(=O)O; Aib = CC(C)(N)C(=O)O Where only a bound is given, the exact number is not on record here.

One test concerns the target T1, human GCGR (Homo sapiens, UniProt P47871).
T1 construct: expressed in transfected cells; growth medium holds Blasticidin and Hygromycin
Put plainly: cAMP activity assay at the Glucagon receptor (GCGR). Type of test: cell-based. To be noted: for hGCGR/hGLP1R (hTone): ratio of GCGR EC50 to GLP1R EC50. Put shortly:
(§1)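 Peptides serially diluted from DMSO (10 points) and added to frozen-stock cells bearing human GLP1R (10,000 cells/well) or GCGR (30,000 cells/well), 1 h at RT, dark. EC50 by four-parameter logistic fit of HitHunter cAMPXS luminescence, read following overnight RT incubation.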

Another test concerns the target T2, human GLP1R (Homo sapiens, UniProt P43220).
T2 construct: expressed in transfected cells; growth medium holds Blasticidin and Hygromycin
Put plainly: cAMP activity assay at the GLP-1 receptor (GLP1R). Type of test: cell-based. In a few lines:
as §1

[1] abbreviates: summary statement: EC50 at each of the glucagon and GLP-1 receptors, read-out: EC50 at the glucagon receptor.
Setting [2] is: summary statement: EC50 at each of the glucagon and GLP-1 receptors, read-out: EC50 at the GLP-1 receptor.
Setting [3] is: cells expressing human GLP1R, cAMP production, buffer with or without 20% human serum (not stated which), read-out: GLP1R EC50 human.

T1 sequence (P47871 26-477): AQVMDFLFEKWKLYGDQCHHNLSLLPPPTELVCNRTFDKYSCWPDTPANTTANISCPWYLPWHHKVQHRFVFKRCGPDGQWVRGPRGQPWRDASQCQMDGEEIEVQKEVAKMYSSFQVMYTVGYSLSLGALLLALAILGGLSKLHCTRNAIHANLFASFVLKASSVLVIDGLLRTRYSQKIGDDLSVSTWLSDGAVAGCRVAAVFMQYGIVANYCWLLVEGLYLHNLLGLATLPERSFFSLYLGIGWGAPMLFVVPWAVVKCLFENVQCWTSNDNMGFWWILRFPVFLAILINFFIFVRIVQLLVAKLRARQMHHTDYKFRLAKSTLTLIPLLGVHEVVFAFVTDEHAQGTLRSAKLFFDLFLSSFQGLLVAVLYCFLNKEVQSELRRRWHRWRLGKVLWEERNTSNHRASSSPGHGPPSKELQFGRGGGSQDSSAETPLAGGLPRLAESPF
T2 sequence (P43220 24-463): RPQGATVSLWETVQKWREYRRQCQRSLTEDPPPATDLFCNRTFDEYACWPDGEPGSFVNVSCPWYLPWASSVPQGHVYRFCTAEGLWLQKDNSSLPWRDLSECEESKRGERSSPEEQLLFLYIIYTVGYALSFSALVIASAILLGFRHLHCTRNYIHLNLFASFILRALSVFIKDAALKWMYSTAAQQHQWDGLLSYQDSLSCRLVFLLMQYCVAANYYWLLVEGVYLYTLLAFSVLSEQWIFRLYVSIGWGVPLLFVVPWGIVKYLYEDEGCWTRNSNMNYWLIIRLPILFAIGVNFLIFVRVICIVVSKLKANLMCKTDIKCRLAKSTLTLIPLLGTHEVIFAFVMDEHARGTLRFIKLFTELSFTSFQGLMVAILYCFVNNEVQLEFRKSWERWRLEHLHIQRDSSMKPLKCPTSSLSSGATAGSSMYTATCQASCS

For `CC(C)C[C@H](NC(=O)[C@H](Cc1ccc(O)cc1)NC(=O)[C@H](CCCCN)NC(=O)[C@H](CO)NC(=O)[C@H](Cc1ccc(O)cc1)NC(=O)[C@H](CC(=O)O)NC(=O)[C@H](CO)NC(=O)[C@@H](NC(=O)[C@H](Cc1ccccc1)NC(=O)[C@@H](NC(=O)CNC(=O)[C@H](CCC(N)=O)NC(=O)[C@](C)(CO)NC(=O)[C@@H](N)Cc1c[nH]cn1)[C@@H](C)O)[C@@H](C)O)C(=O)N[C@@H](CC(=O)O)C(=O)N[C@@H](C)C(=O)N[C@@H](CCCNC(=N)N)C(=O)N[C@@H](C)C(=O)N[C@@H](C)C(=O)N[C@@H](CCC(N)=O)C(=O)N[C@@H](CCCCNC(=O)COCCOCCNC(=O)COCCOCCNC(=O)CC[C@H](NC(=O)CCCCCCCCCCCCCCC(=O)O)C(=O)O)C(=O)N[C@@H](Cc1ccccc1)C(=O)N[C@H](C(=O)N[C@@H](CCC(N)=O)C(=O)N[C@@H](Cc1c[nH]c2ccccc12)C(=O)N[C@@H](CC(C)C)C(=O)N[C@@H](CCS(C)(=O)=O)C(=O)N[C@@](C)(CC(=O)O)C(=O)N[C@H](C(N)=O)[C@@H](C)O)C(C)C` [TP615] (H-H[αMeS]QGTFTSDYSKYLDARAAQK([AEEA-AEEA-γGlu-C16 diacid])FVQWL[Met(O2)][αMeD]T-NH2), the “hGCGR/hGLP1R (hTone)” value on human GCGR was 0.6. Moreover, the pEC50 at human GCGR (setting [1]) and on human GLP1R (setting [2]) was > 8.30 throughout.

As for `CC(C)C[C@H](NC(=O)[C@H](Cc1c[nH]c2ccccc12)NC(=O)[C@H](CCC(N)=O)NC(=O)[C@@H](NC(=O)[C@H](Cc1ccccc1)NC(=O)[C@H](CC(=O)O)NC(=O)[C@H](CCCCNC(=O)COCCOCCNC(=O)COCCOCCNC(=O)CC[C@H](NC(=O)CCCCCCCCCCCCCCCCC(=O)O)C(=O)O)NC(=O)[C@H](C)NC(=O)[C@H](C)NC(=O)[C@H](CCCNC(=N)N)NC(=O)[C@H](C)NC(=O)[C@](C)(CC(=O)O)NC(=O)[C@H](CC(C)C)NC(=O)[C@H](Cc1ccc(O)cc1)NC(=O)[C@H](CCCCN)NC(=O)[C@H](CO)NC(=O)[C@H](Cc1ccc(O)cc1)NC(=O)[C@H](CC(=O)O)NC(=O)[C@H](CO)NC(=O)[C@@H](NC(=O)[C@H](Cc1ccccc1)NC(=O)[C@@H](NC(=O)CNC(=O)[C@H](CCC(N)=O)NC(=O)C(C)(C)NC(=O)[C@@H](N)Cc1c[nH]cn1)[C@@H](C)O)[C@@H](C)O)C(C)C)C(=O)N[C@@H](CCS(C)(=O)=O)C(=O)N[C@@](C)(CC(=O)O)C(=O)N[C@H](C(N)=O)[C@@H](C)O` [TP610] (H-H[Aib]QGTFTSDYSKYL[αMeD]ARAAK([AEEA-AEEA-γGlu-C18 diacid])DFVQWL[Met(O2)][αMeD]T-NH2; N-terminus assumed), the “hGCGR/hGLP1R (hTone)” value on human GCGR is recorded as <0.01. In addition, at human GLP1R (setting [3]), the pEC50 (usually the EC50 on a negative log10 scale, so that one unit is a factor of ten) is < 8.30.

Take `CC(C)C[C@H](NC(=O)[C@H](Cc1ccc(O)cc1)NC(=O)[C@H](CCCCN)NC(=O)[C@H](CO)NC(=O)[C@H](Cc1ccc(CNC(=O)COCCOCCNC(=O)CC[C@H](NC(=O)CCCCCCCCCCCCCCCCC(=O)O)C(=O)O)cc1)NC(=O)[C@H](CC(=O)O)NC(=O)[C@H](CO)NC(=O)[C@@H](NC(=O)[C@H](Cc1ccccc1)NC(=O)[C@@H](NC(=O)CNC(=O)[C@H](CCC(N)=O)NC(=O)C(C)(C)NC(=O)[C@@H](N)Cc1c[nH]cn1)[C@@H](C)O)[C@@H](C)O)C(=O)N[C@@H](CC(=O)O)C(=O)N[C@@H](C)C(=O)N[C@@H](CCCNC(=N)N)C(=O)N[C@@H](C)C(=O)N[C@@H](C)C(=O)N[C@@H](CCC(N)=O)C(=O)N[C@@H](CC(=O)O)C(=O)N[C@@H](Cc1ccccc1)C(=O)N[C@H](C(=O)N[C@@H](CCC(N)=O)C(=O)N[C@@H](Cc1c[nH]c2ccccc12)C(=O)N[C@@H](CC(C)C)C(=O)N[C@@H](CCS(C)(=O)=O)C(=O)N[C@@H](CC(=O)O)C(=O)N[C@H](C(N)=O)[C@@H](C)O)C(C)C` [TP623] (H-H[Aib]QGTFTSD[Phe(4-CH2NH2)]([AEEA-γGlu-C18 diacid])SKYLDARAAQDFVQWL[Met(O2)]DT-NH2): the “hGCGR/hGLP1R (hTone)” value at human GCGR came out at 0.5. Besides, the pEC50 at human GCGR (setting [1]) and at human GLP1R (setting [2]) was > 8.30 each time.

For `CC(C)C[C@H](NC(=O)[C@H](Cc1c[nH]c2ccccc12)NC(=O)[C@H](CCCCNC(=O)COCCOCCNC(=O)COCCOCCNC(=O)CC[C@H](NC(=O)CCCCCCCCCCCCCCCCCCC(=O)O)C(=O)O)NC(=O)[C@@H](NC(=O)[C@H](Cc1ccccc1)NC(=O)[C@H](CC(=O)O)NC(=O)[C@H](CCC(N)=O)NC(=O)[C@H](C)NC(=O)[C@H](C)NC(=O)[C@H](CCCNC(=N)N)NC(=O)C(C)(C)NC(=O)[C@H](CC(=O)O)NC(=O)[C@H](CC(C)C)NC(=O)[C@H](Cc1ccc(O)cc1)NC(=O)[C@H](CCCCN)NC(=O)[C@H](CO)NC(=O)[C@H](Cc1ccc(O)cc1)NC(=O)[C@H](CC(=O)O)NC(=O)[C@H](CO)NC(=O)[C@@H](NC(=O)[C@H](Cc1ccccc1)NC(=O)[C@@H](NC(=O)CNC(=O)[C@H](CCC(N)=O)NC(=O)C(C)(C)NC(=O)[C@@H](N)Cc1c[nH]cn1)[C@@H](C)O)[C@@H](C)O)C(C)C)C(=O)N[C@@H](CCS(C)(=O)=O)C(=O)N[C@@H](CC(=O)O)C(=O)N[C@H](C(N)=O)[C@@H](C)O` [TP576] (H-H[Aib]QGTFTSDYSKYLD[Aib]RAAQDFVK([AEEA-AEEA-γGlu-C20 diacid])WL[Met(O2)]DT-NH2; N-terminus assumed), the pEC50 was 8.84 on human GCGR (cells expressing human GCGR, cAMP production, buffer with or without 20% human serum (not stated which), read-out: GCGR EC50 human); > 8.30 at human GCGR (setting [1]); > 8.30 at human GLP1R (setting [2]). For the same compound, on human GCGR, the “hGCGR/hGLP1R (hTone)” value is on record as 0.8.

For the compound `CC(C)C[C@H](NC(=O)[C@H](Cc1ccc(O)cc1)NC(=O)[C@H](CCCCN)NC(=O)[C@H](CO)NC(=O)[C@H](Cc1ccc(O)cc1)NC(=O)[C@H](CC(=O)O)NC(=O)[C@H](CO)NC(=O)[C@@H](NC(=O)[C@H](Cc1ccccc1)NC(=O)[C@@H](NC(=O)CNC(=O)[C@H](CCC(N)=O)NC(=O)C(C)(C)NC(=O)[C@@H](N)Cc1c[nH]cn1)[C@@H](C)O)[C@@H](C)O)C(=O)N[C@@H](CC(=O)O)C(=O)N[C@@H](C)C(=O)N[C@@H](CCCNC(=N)N)C(=O)N[C@@H](C)C(=O)N[C@@H](C)C(=O)N[C@@H](CCC(N)=O)C(=O)N[C@@H](CC(=O)O)C(=O)N[C@@H](Cc1ccccc1)C(=O)N[C@H](C(=O)N[C@@H](CCCCNC(=O)COCCOCCNC(=O)COCCOCCNC(=O)COCCOCCNC(=O)CC[C@H](NC(=O)CCCCCCCCCCCCCCCCC(=O)O)C(=O)O)C(=O)N[C@@H](Cc1c[nH]c2ccccc12)C(=O)N[C@@H](CC(C)C)C(=O)N[C@@H](CCS(C)(=O)=O)C(=O)N[C@@H](CC(=O)O)C(=O)N[C@H](C(N)=O)[C@@H](C)O)C(C)C` [TP680] (H-H[Aib]QGTFTSDYSKYLDARAAQDFVK([AEEA-AEEA-AEEA-γGlu-C18 diacid])WL[Met(O2)]DT-NH2; N-terminus assumed), on human GCGR, the “hGCGR/hGLP1R (hTone)” value came out at 3.0. In addition, the pEC50 on human GCGR (setting [1]) was > 8.30; at human GLP1R (setting [3]), 9.72; on human GLP1R (setting [2]), > 8.30.
